≈ marks a conversion by molar mass, not a printed value. Non-standard residues stand in square brackets, D forms with d. Residues, ends and D or L forms follow the SMILES beside them. No end group written: not given here. 1Nal = N[C@@H](Cc1cccc2ccccc12)C(=O)O; Nle = CCCC[C@H](N)C(=O)O
Key:
[1] = test system: Pseudomonas aeruginosa (ATCC 27853); type: cell-based; details: ATCC 27853, 18 h
Procedure: To explore the antimicrobial activity of the library of peptides and peptidomimetics, they were tested against Acinetobacter baumannii, Corynebacterium auriscanis, Escherichia coli, Enterococcus faecalis, Enterococcus faecium, Klebsiella pneumonia, Proteus mirabilis, and Pseudomonas aeruginosa. Bacteria grown on agar plates for 18 h at 37 °C were diluted to ~1 × 10^8 CFU/mL in Mueller–Hinton broth (MHB). Two-fold serial dilutions of peptides and peptidomimetics in MHB II were inoculated with bacteria to achieve a final concentration of 5 × 10^5 CFU/mL in polypropylene 96 U-well microtiter plates (Almeco, Esbjerg, Denmark), followed by incubation at 37 °C in ambient air for 18 h. The MIC values were determined as the lowest concentration showing no visible bacterial growth. Experiments were performed twice (in technical triplicates) on two different days.

red blood cell (RBC) = details: 0.5% RBC suspension in PBS, 1 h, 37 °C, read at 414 nm, normalized to mellitin and PBS, triplicates
Procedure: Briefly, 75 µL of peptide in PBS was mixed with 75 µL of a 0.5% red blood cell (RBC) suspension in PBS, and incubated for 1 h at 37 °C. The hemoglobin release was then measured at 414 nm and normalized, using mellitin as positive control and PBS as negative control. Experiments were done in triplicates.

MRSP ST71 strain E104 = assay: Growth curve analysis (BioScreen); type: cell-based, Staphylococcus pseudintermedius; details: at the MIC, MRSP E104, OD600, 6 h, 37 °C
Procedure: First, we performed growth curve analysis using the well-characterized MRSP ST71 strain E104, which is resistant to a number of antibiotics. […] A well-characterized antimicrobial peptide, nisin, was used as control. […] Increased concentrations of nisin inhibited proportionally the growth of E104, both at sub-MIC and MIC concentrations.
The effect of D2 or analogues or nisin on the growth of MRSP strain E104 was evaluated using BioScreen (Oy Growth Curves Ab LTd, Helsinki, Finland). Freshly grown culture of E104 was diluted to OD 0.2 at 600 nm, supplemented with increased concentration of antimicrobials and distributed in a 100 well honeycomb micro-plate with volume 100 μL. The plate was incubated for 6 h at 37 °C with continuous shaking. The OD600 of each micro-culture was measured and recorded every 15 min after a 5 s pause of shaking in automatic mode. Recorded OD was plotted against time to prepare the growth curves. Experiment was performed twice and one representative result was presented.

[2] = test system: cell wall synthesis in MRSP E104; assay: Macromolecule biosynthesis assay, cell wall (3H-glucosamine hydrochloride); type: cell-based, Staphylococcus pseudintermedius; details: 0.5× MIC, 20 min incubation, MRSP E104, 3H-glucosamine hydrochloride; means of two experiments
Procedure: (§1) The effect on DNA and cell wall synthesis was investigated after 20 min of incubation of MRSP E104 with the precursors ^3H-thymidine and ^3H-glucosamine hydrochloride, respectively, as previously reported by Ling et al.. Following macromolecule precipitation, radioactivity was counted using scintillation fluid. Incorporation of ^3H- or ^14C-labeled thymidine has been used to investigate DNA replication and transcriptional activity during the cell cycle; ^3H-glucosamine hydrochloride has been used in a mode of action study for the antimicrobial peptide plectasin, which targets the cell wall precursor lipid II [44].
(§2) Macromolecules (DNA and cell wall) biosynthesis rates were measured using strain MRSP E104 following a protocol adapted from Ling et al.. Briefly, overnight culture of E104 was diluted 1:100 in MHB and freshly grown up to OD 0.2 at 600 nm. Grown cells were pelleted down by centrifugation and then resuspended in fresh MHB medium followed by incubation for 20 min on a dry heat-bath with D2 or analogues or nisin and radiolabeled precursor: (50 µCi) ^3H-Thymidine (PerkinElmer) and (5 µCi) ^3H-glucosamine hydrochloride per mL for DNA and cell wall, respectively. A positive control without antimicrobials was maintained that corresponds to 100% synthesis rate. After 20 min of incubation, samples were precipitated with equal volume of cold 30% trichloroactic acid (TCA Sigma, Søborg, Denmark) on ice. After 15 to 30 min of incubation on ice, precipitates were filtered on a membrane filter and subsequently washed twice with cold 15% TCA and twice with cold water using a vacuum manifold. Next, filters were air dried overnight and then moved to 10 mL scintillation vials. Finally, 3 mL scintillation fluid was added to each vial and ^3H count was taken in Beckman Coulter LS6500 liquid scintillation counter for 1 min. The radioactive counts of the control samples with no antimicrobial exposure were considered to have 100% precursor incorporation and macromolecule synthesis. The percentage rates of macromolecule synthesis in the antimicrobial-exposed samples were calculated compared to control. Each experiment was performed twice with a technical replicate, and the average rates of synthesis were plotted.

[3] = test system: DNA synthesis in MRSP E104; assay: Macromolecule biosynthesis assay, DNA (3H-thymidine); type: cell-based, Staphylococcus pseudintermedius; details: 0.5× MIC, 20 min incubation, MRSP E104, 3H-thymidine; means of two experiments
Procedure: as §1, §2

[4] = test system: Methicillin resistant Staphylococcus pseudintermedius, (C22963); type: cell-based; details: 18 h
[5] = test system: Staphylococcus aureus (ATCC 29213); type: cell-based; details: ATCC 29213, 18 h
[6] = test system: Methicillin sensitive Staphylococcus pseudintermedius (26916); type: cell-based; details: 18 h
[7] = test system: membrane proton motive force of E104 cells; assay: DiSC3(5) fluorescence, membrane depolarization; type: cell-based, Staphylococcus pseudintermedius; details: 0.5× MIC, n = 2
Source text: In this study, the DiSC3(5) probe was used to assess the effect of D2 and its structural analogues D2L, D2D, and D2R on cytoplasmic membrane depolarization. DiSC3(5) is a cationic carbocyanine dye, which accumulates on negatively charged membrane, translocates into lipid membrane with a distribution dependent on plasma and mitochondrial membrane potential. Altered emission profile of DiSC3(5) measured via fluorescence spectroscopy indicates membrane depolarization caused by proton motive force dissipation, ATP production and/or pore formation. The increment of DiSC3(5) fluorescence of labeled cells resulting from its leakage upon addition of antimicrobial agents is usually measured over time. The protonophore carbonyl cyanide metachlorophenyl hydrazone (CCCP) is used as positive control, which rapidly dissipates PMF increasing proton permeability, alters both membrane proton gradient and transmembrane electric potential and decreases cellular ATP content. Based on the MIC and growth analysis results, sub-lethal concentrations of D2 and selected analogues were chosen to perform DiSC3(5) fluorescence and macromolecule biosynthesis studies.
Freshly grown E104 cells with OD 0.2 at 600 nm were labeled with 1 µM 3,3-dipropylthiadicarbocyanine iodide [DiSC3(5)] (Sigma-Aldrich, Søborg, Denmark) in MHB. The fluorescence spectra of fluorophore-labeled cells were plotted using the LS-50B luminescence spectrometer (PerkinElmer, Waltham, MA, USA) at excitation/emission wavelengths 546 nm/573 nm using time drive application of FLWINLAB software. After reading initial stable emission spectra of DiSC3(5), labeled cells were exposed with D2 or analogues or nisin or protonophore CCCP by directly injecting the concentrated solution of agent to the cuvette, and the change of fluorescence over time was recorded until emission spectra reached to stability. The increment of DiSC3(5) fluorescence upon addition of antimicrobials or CCCP (FUafter-exposure – FUbefore-exposure) was calculated and plotted in addition to raw fluorescence spectra. Experiment was performed twice and average fluorescence change was plotted with standard deviation.

S. aureus = test system: S. aureus; design: method as in PMID 28262682; details: cited from earlier work

Compound | MIC PA [1] [µg/mL] | HA, percentage of hemolysis at 150 µM (red blood cell (RBC)) [%] | growth curve, change of cell optical density over time (MRSP ST71 strain E104) | effect on (inhibition of) cell wall synthesis [2] [%] | inhibition of DNA biosynthesis rate [3] [%] | MIC MRSP [4] [µg/mL] | MIC SA [5] [µg/mL] | MIC MSSP [6] [µg/mL] | effect on PMF (membrane depolarization, DiSC3(5) fluorescence) [7] | antimicrobial activity (MIC) against S. aureus (S. aureus) [µg/mL]
CCCC[C@H](NC(=O)[C@H](CCCCN)NC(=O)[C@H](Cc1cccc2ccccc12)NC(=O)[C@H](CCCCN)NC(=O)[C@H](Cc1ccccc1)NC(=O)[C@H](Cc1cccc2ccccc12)NC(=O)[C@H](CCCCN)NC(=O)[C@@H](N)CCCCN)C(N)=O [D2L] (H-KK[1Nal]FK[1Nal]K[Nle]-NH2; N-terminus assumed) | 16 (≈ 13.5 µM) | 35 | cell lysis | 31 | 17 | 8 (≈ 6.75 µM) | 32 (≈ 27 µM) | 16 (≈ 13.5 µM) | strongest effect on PMF | 
CCCC[C@H](N)C(=O)N[C@@H](CCCCN)C(=O)N[C@@H](Cc1cccc2ccccc12)C(=O)N[C@@H](CCCCN)C(=O)N[C@@H](Cc1ccccc1)C(=O)N[C@@H](Cc1cccc2ccccc12)C(=O)N[C@@H](CCCCN)C(=O)N[C@@H](CCCCN)C(N)=O [D2R] (H-[Nle]K[1Nal]KF[1Nal]KK-NH2; N-terminus assumed) | 32 to 64 | 23 | cell lysis | 22 | < 5 | 4 (≈ 3.38 µM) | 32 (≈ 27 µM) | 16 (≈ 13.5 µM) | strongest effect on PMF | 
KLKLLLLLKLK-NH2 |  |  |  |  |  |  |  |  |  | 16
nisin (ITSISLCTPGCKTGALMGCNMKTATCHCSIHVSK; also: lantibiotic: lanthionine rings and dehydro residues, places not given here; UniProt P13068 24-57, looked up) [well-characterized antimicrobial peptide used as control, reference compound] |  |  |  |  | 45 |  |  |  | does not have any effect on PMF | 

— paper PMC6470533, “Structure–Activity Study, Characterization, and Mechanism of Action of an Antimicrobial Peptoid D2 and Its D- and L-Peptide Analogues” (Molecules, 2019)
